Test results as given in patent US10307383B2, “Cosmetic composition for preventing or ameliorating hypersensitive skin comprising cedrol or derivatives thereof, or pharmaceutically acceptable salts thereof” (University of Seoul Industry Cooperation Foundation, priority 2017, dated 2019).
Values after ≈ are worked out from the molar mass of the structure shown.

System: IL-17A expression
Experiment: IL-17A inhibition assay in IL-17 luciferase-(LUCPorter) stable reporter cell line
Conditions: for Inhibition of IL-17A expression (%) Experiment-1 / Inhibition of IL-17A expression (%) Experiment-2 / Inhibition of IL-17A expression (%) Experiment-3: 6 hours; for expression of IL-17A (luciferase units): control group 2,582 units; for inhibition at 10 µg/mL / inhibition at 100 µg/mL / inhibition at 1000 µg/mL / IC50: Homo sapiens; for inhibition at 10 µg/mL / inhibition at 100 µg/mL / inhibition at 1000 µg/mL: read-out: Average Inhibition (%); for IC50: read-out: IC50 to inhibit the IL-17A expression by 50%

| SMILES | expression of IL-17A, % by the control (10 μg/ml) [% by the control] | Inhibition of IL-17A expression (%) Experiment-1 (10 μg/ml) [%] | Inhibition of IL-17A expression (%) Experiment-2 (10 μg/ml) [%] | Inhibition of IL-17A expression (%) Experiment-3 (10 μg/ml) [%] | expression of IL-17A (luciferase units) (10 μg/ml) | expression of IL-17A, % by the control (100 μg/ml) [% by the control] | Inhibition of IL-17A expression (%) Experiment-1 (100 μg/ml) [%] | Inhibition of IL-17A expression (%) Experiment-2 (100 μg/ml) [%] | Inhibition of IL-17A expression (%) Experiment-3 (100 μg/ml) [%] | expression of IL-17A (luciferase units) (100 μg/ml) | expression of IL-17A, % by the control (1,000 μg/ml) [% by the control] | Inhibition of IL-17A expression (%) Experiment-1 (1000 μg/ml) [%] | Inhibition of IL-17A expression (%) Experiment-2 (1000 μg/ml) [%] | Inhibition of IL-17A expression (%) Experiment-3 (1000 μg/ml) [%] | expression of IL-17A (luciferase units) (1,000 μg/ml) | inhibition at 10 µg/mL [%] | inhibition at 100 µg/mL [%] | inhibition at 1000 µg/mL [%] | IC50 [µg/mL] |
| --- | --- | --- | --- | --- | --- | --- | --- | --- | --- | --- | --- | --- | --- | --- | --- | --- | --- | --- | --- |
| C[C@@H]1CC[C@H]2C(C)(C)[C@H]3C[C@@]12CC1OC13C (stereo partly drawn) [cedrene epoxide, Cedrene epoxide] | 100 | 11 | 4 | 0 | 2,591±458 units | 88 | 14 | 16 | 12 | 2,267±806 units | 54 | 60 | 56 | 46 | 1,382±87 units | 5 | 14 | 54 | 942 (≈ 4.27 mM) |
| CC(=O)C1=C(C)[C@@H]2C[C@@]3(C1)[C@H](C)CC[C@H]3C2(C)C [methyl cedryl ketone, Methyl cedryl ketone] | 87 | 0 | 1 | 13 | 2,248±194 units | 75 | 12 | 15 | 25 | 1,930±111 units | 34 | 78 | 58 | 66 | 866±106 units | 4.7 | 17.3 | 67.3 | 841 (≈ 3.41 mM) |
| CO[C@]1(C)CC[C@@]23C[C@@H]1C(C)(C)[C@@H]2CC[C@H]3C [methyl cedryl ether, Methyl cedryl ether] | 96 | −6 | 4 | 4 | 2,479±136 units | 92 | −5 | 5 | 8 | 2,379±206 units | 74 | 48 | 18 | 26 | 1,921±239 units | 0.7 | 2.7 | 30.7 | 1130 (≈ 4.78 mM) |
